The values that follow come from patent US20060135796A1, “Antiangiogenic agents” (priority 2000, published 2006).

The subject of one assay is HUVEC cells. The assay can be described thus: HUVEC in vitro cellular proliferation inhibition (BrdU). In kind it is cell-based, human. Particulars: for antiproliferative activity in HUVEC cells, in words: inhibition of HUVEC / endothelial cell proliferation in vitro. On the procedure:
HUVAC In Vitro Cellular Proliferation Inhibition
HUVAC Cells and Culture Conditions
HUVAC Cells were Grown in EGM (Clonetics)
HUVEC cells were plated at 5000 cells/ml in 96-well plates. After allowing the cells to attach overnight, the cells were washed with PBS and incubated in the absence of growth factor for 24 h (EBM, 2% FCS, Clonetics). Cells were treated with increasing concentrations of drug in EBM containing 2% FCS and 10 ng.ml bFGF for 48 h at 37° C. Drug preparation, volumes added and BrdU proliferation assay were performed as indicated above.
(§1) In order to assess the biological activity of modifications at position 16, the anti-proliferative activity of these analogs was evaluated on human umbilical vein endothelial cells (HUVEC) and breast carcinoma cell line, MDA-MB-231 as models for the anti-angiogenic and anti-tumor activity, respectively.

Assay [1] concerns MDA-MB-231 human breast carcinoma cells. Briefly: MDA-MB-231 in vitro cellular proliferation inhibition (BrdU). Particulars: for fold less activity than 2-methoxyestradiol: MDA-MB-231 tumor cell line, compared to 2-methoxyestradiol; for antiproliferative activity in MDA-MB-231 cells, in words: breast tumor MDA-MB-231 cells. It counts as cell-based. On the procedure: MDA-MB-231 In Vitro Cellular Proliferation Inhibition
MDA-MB-231 Cells and Culture Conditions
MDA-MB-231 human breast carcinoma cells were grown in DMEM containing 10% FCS (Hyclone Laboratories, Logan Utah) and supplemented with 2 mM L-Glutamine, 100 units/ml penicillin, 100 μg/ml streptomycin (Irvine Scientific, Santa Anna, Calif.).
MDA-MB-231 cells were plated at 5000 cells/ml in 96 well plates. After allowing the cells to attach overnight, the appropriate fresh media were applied containing differing concentrations of 2-ME2 or derivatives thereof, as described below. Drug was dissolved in DMSO (Sigma, St. Louis, Mo.) and added to the wells in a volume of 200 μl. Cells were incubated for two days at 37° C.; at 32 h BrdU was added. BrdU cell proliferation assay (a nucleotide analogue with a fluorescein tag that is incorporated into DNA) was performed as described by the manufacturer (Roche). Each condition was prepared in triplicate and the experiments were carried out a minimum of two times. Results are presented and means ±SE.
as §1

For assay [2], the system named is estrogen dependant MCF-7 cells. Briefly: MCF7 proliferation index (estrogenic activity). It counts as cell-based. Particulars: measure of estrogenic activity. From the text:
All of these analogs have the capacity to from a hydrogen bond with the hydroxy group at position 3 and this may be the reason for their relatively low estrogenic character compared to estradiol. Both the 2-methylhydroxy and 2-formyl derivatives had good antiproliferative activity (IC50<10 microM) in HUVEC cells, whereas the 2-acetyl had poor activity in the same assay.

The subject of assay [3] is chick embryo chorioallantoic membrane. Briefly: chick embryo chorioallantoic membrane (CAM) assay. In kind it is in vivo. Set-up: dose or concentration left out as unconfirmed. Particulars: methylcellulose disc on CAM, after 48 hours. On the procedure:
Anti-proliferative activity is evaluated in situ by testing the ability of an improved estradiol derivative to inhibit the proliferation of new blood vessel cells (angiogenesis). A suitable assay is the chick embryo chorioallantoic membrane (CAM) assay described by Crum et al. Science 230:1375 (1985). See also, U.S. Pat. No. 5,001,116, hereby incorporated by reference, which describes the CAM assay. Briefly, fertilized chick embryos are removed from their shell on day 3 or 4, and a methylcellulose disc containing the drug is implanted on the chorioallantoic membrane. The embryos are examined 48 hours later and, if a clear avascular zone appears around the methylcellulose disc, the diameter of that zone. is measured.

[4] abbreviates: Table 2, 2-methoxyestradiol modified at position 16, 48 h, bFGF, read-out: HUVEC IC50.
Where [5] appears, read: Table 2, 2-methoxyestradiol modified at position 16, two days, read-out: MDA-MB-231 IC50.
Setting [6] is: Table 1, 2-modified estradiol derivatives, read-out: HUVEC (IC50 μM).
Setting [7] is: text statement b78, read-out: antiproliferative activity IC50 in HUVEC cells.
The mark [8] stands for this setting: Table 1, 2-modified estradiol derivatives, read-out: MDA-MB-231 (IC50 μM).

Where two headings read alike, the source gives them in different places.

The term IC50 denotes the midpoint of a concentration-inhibition curve. For the compound 16β-isobutyl-2-methoxyestradiol, the IC50 in the assay with HUVEC cells (setting [4]) was found to be 7.5 µM; in assay [1] (setting [5]), 40 µM. Besides, the “fold difference between tumor cell and endothelial cell antiproliferative activity (selectivity)” value in assay [1] (MDA-MB-231 versus HUVEC) is reported as 5 fold.

For the compound `CCC1C[C@H]2[C@@H]3CCc4cc(O)c(OC)cc4[C@H]3CC[C@]2(C)[C@H]1O` (mixture of isomers) [ethyl (—CH2CH3), Racemic 16-ethyl-2-methoxyestradiol], the IC50 in the assay with HUVEC cells (setting [4]) is 2 µM; in assay [1] (setting [5]), 3 µM. Also, the “antiproliferative activity in HUVEC cells, in words” value in the assay with HUVEC cells was “about equipotent to 2-methoxyestradiol”. Besides, the “fold less activity than 2-methoxyestradiol” value in assay [1] is reported as about 3 fold.

For the compound `C[C@]12CC[C@@H]3c4cc(CO)c(O)cc4CC[C@H]3[C@@H]1CC[C@@H]2O` [2-methyl hydroxy-E2], the IC50 in the assay with HUVEC cells (setting [6]) was 10 µM; in the assay on HUVEC cells (setting [7]) it was under 10 µM; in assay [1] (setting [8]), over 25 µM. In assay [1], the “antiproliferative activity in MDA-MB-231 cells, in words” value is “inactive”. In assay [2], the “MCF7 Proliferation Index” value is recorded as 7.4.

In the case of `COc1cc2c(cc1O)CC[C@@H]1[C@@H]2CC[C@]2(C)[C@@H](O)[C@@H](CN(C)C)C[C@@H]12` [16β-methyl(dimethylamine)-2-methoxyestradiol], the values for the IC50 (in the assay on HUVEC cells (setting [4]); in assay [1] (setting [5])) were 9 µM and 22 µM, respectively.

For the compound `CC(=O)c1cc2c(cc1O)CC[C@@H]1[C@@H]2CC[C@]2(C)[C@@H](O)CC[C@@H]12` [Example 2-acetyl-E2], the IC50 in the assay with HUVEC cells (setting [6]) was 18 µM; in assay [1] (setting [8]), 9 µM. Moreover, the “antiproliferative activity in HUVEC cells, in words” value in the assay with HUVEC cells was “poor activity”. In addition, in assay [1], the “antiproliferative activity in MDA-MB-231 cells, in words” value is “good activity”. Besides, the “MCF7 Proliferation Index” value in assay [2] came out at 4.4.

As for `CC12CCC3c4cc(C=O)c(O)cc4CCC3C1CCC2O` (stereo not drawn) [Example 2-formyl-E2], the IC50 with HUVEC cells (setting [6]) is 8 µM; with HUVEC cells (setting [7]) it was under 10 µM; in assay [1] (setting [8]), over 25 µM. The “antiproliferative activity in MDA-MB-231 cells, in words” value in assay [1] is “inactive”. Besides, the “MCF7 Proliferation Index” value in assay [2] came to 5.4.

Regarding `COc1cc2c(cc1O)CC[C@@H]1[C@@H]2CC[C@]2(C)[C@@H](O)CC[C@@H]12` [Example 2ME2, 2-Methoxyestradiol, reference compound], the concentration for half-maximal inhibition (IC50) in assay [1] (setting [8]) and in assay [1] (setting [5]) was 0.9 µM each time. Besides, in assay [2], the “MCF7 Proliferation Index” value came out at 4.4. The “inhibition of cell mitosis and growth of new blood vessels” value in assay [3] was “inhibit cell mitosis and the growth of new blood vessels”.

With `C[C@]12CC[C@@H]3c4ccc(O)cc4CC[C@H]3[C@@H]1CC[C@@H]2O` [Example E2, estradiol, reference compound], in assay [2], the “MCF7 Proliferation Index” value was 13.1.

As for `COc1cc2c(cc1O)CC[C@@H]1[C@@H]2CC[C@]2(C)[C@@H](O)[C@@H](CO)C[C@@H]12` [methanol (—CH2OH), 16β-methanol-2-methoxyestradiol], the IC50 in the assay with HUVEC cells (setting [4]) amounted to 15 µM; in assay [1] (setting [5]), 22 µM.

As to `COc1cc2c(cc1O)CC[C@@H]1[C@@H]2CC[C@]2(C)[C@@H](O)[C@H](C)C[C@@H]12` [methyl (—CH3), 16α-methyl-2methoxyestradiol], the IC50 (with HUVEC cells (setting [4]); in assay [1] (setting [5])) was under 0.5 µM in each case. Besides, the “antiproliferative activity in HUVEC cells, in words” value in the assay with HUVEC cells is recorded as “greater activity than 2-methoxyestradiol”. In assay [1], the “antiproliferative activity in MDA-MB-231 cells, in words” value is “better activity than 2-methoxyestradiol”.

On to `COc1cc2c(cc1O)CC[C@@H]1[C@@H]2CC[C@]2(C)[C@@H](O)[C@@H](C)C[C@@H]12` [methyl, 16β-methyl-2methoxyestradiol], for which the values for the IC50 (in the assay with HUVEC cells (setting [4]); in assay [1] (setting [5])) were 1.3 µM and 5 µM, respectively. Also, the “fold less activity than 2-methoxyestradiol” value in assay [1] is listed as “about 5 fold”.

For `CCCC[C@H]1C[C@H]2[C@@H]3CCc4cc(O)c(OC)cc4[C@H]3CC[C@]2(C)[C@H]1O` [n-butyl, 16β-n-butyl-2-methoxyestradiol], the figures for the IC50 (in the assay with HUVEC cells (setting [4]); in assay [1] (setting [5])) were 9 µM and 39 µM, respectively.

For `CCC[C@@H]1C[C@H]2[C@@H]3CCc4cc(O)c(OC)cc4[C@H]3CC[C@]2(C)[C@H]1O` [n-propyl (—CH2CH2CH3), 16α-n-propyl-2-methoxyestradiol], the figures for the IC50 (with HUVEC cells (setting [4]); in assay [1] (setting [5])) were 6 µM and over 50 µM, respectively. For the same compound, in the assay with HUVEC cells, the “antiproliferative activity in HUVEC cells, in words” value is recorded as “good activity”.

For the compound `CCC[C@H]1C[C@H]2[C@@H]3CCc4cc(O)c(OC)cc4[C@H]3CC[C@]2(C)[C@H]1O` [n-propyl, 16β-n-propyl-2-methoxyestradiol], the IC50 amounted to 9 µM in the assay with HUVEC cells (setting [4]) and 36 µM in assay [1] (setting [5]).
